# Assay results from patent US20260061037A1, “BACILLUS SPECIES STRAIN EXPRESSING SUPEROXIDE DISMUTASE, BACILLUS SPECIES STRAIN SPORE AND/OR SUPEROXIDE DISMUTASE, AND USE THEREOF FOR PREVENTING OR TREATING OF FIBROTIC DISEASE” (HLB GENEX, INC., priority 2022, published 2026).
# Columns and labels:
# [1] = system: nonalcoholic steatohepatitis (NASH) STAM™ animal model; assay: Plasma ALT level in NASH STAM model; assay type: in vivo, C57BL/6J mice; details: PO, QD; GF423 1×10^7 CFU, GF103 10 U, telmisartan 10 mg/kg; vs disease control group
# Protocol: (§1) NASH was induced in all groups except the normal group of 8 mice as follows: On the second day after birth, the male mice were injected subcutaneously once with 200 μg streptozotocin (STZ, purchased from Sigma-Aldrich) solution. After the mice reached 4 weeks of age, a solid high-fat diet (HFD, 57 kcal % fat, purchased from CLEA Japan, Inc., Cat #HFD32) was placed on a metal lid on top of the cage so that the mice access it ad libitum, thereby inducing NASH
# (§2) The GF427-administered groups were administered once a day at five dose levels: 0.05×10^7 (lowest dose), 0.1×10^7 (low dose), 0.5×10^7 (middle dose), 1×10^7 (high dose), and 5×10^7 CFU (highest dose) per mouse. The GF423-administered group was administered once a day at a dose of 1×10^7 CFU per mouse. GF103 was administered once a day at a dose of 10 U per mouse. Telmisartan was administered once a day at a dose of 10 mg/kg. […] The animals were monitored daily for viability, clinical signs (lethargy, convulsion, respiratory distress), and behavior to observe whether there are any significant clinical signs of toxicity, coma, and death before and after administration of the test substance. […]
# Plasma ALT level was measured using FUJI DRI-CHEM 7000 (purchased from Fujifilm Corporation). […]
# [2] = system: nonalcoholic steatohepatitis (NASH) STAM™ animal model; assay: H&E staining of liver and NAFLD activity score in NASH STAM model; assay type: in vivo, C57BL/6J mice; details: PO, QD; GF423 1×10^7 CFU, GF103 10 U, telmisartan 10 mg/kg; vs disease control group
# Protocol: as §1, §2
# The paraffin block of liver tissue prepared in Example 7.3 was sectioned using a rotary microtome (purchased from Leica Microsystems). […] The tissue slides were subjected to H&E staining and evaluated by the investigator. […]
# [3] = system: nonalcoholic steatohepatitis (NASH) STAM™ animal model; assay type: in vivo; details: PO, QD, GF423 1×10^7 CFU, telmisartan 10 mg/kg
# Protocol: C57BL/6J mice (14-day-pregnant female, 6-week-old male) (purchased from SLC, Japan) were maintained in a SPF facility with controlled temperature (23±3° C.), humidity (50±20%), lighting (12-hour artificial light/dark cycle; light cycle from 08:00 to 20:00), and air exchange.
# NASH was induced in all groups except the normal group of 8 mice as follows: On the second day after birth, the male mice were injected subcutaneously once with 200 μg streptozotocin (STZ, purchased from Sigma-Aldrich) solution. […]
# The 10-week-old mice with induced NASH were randomized to 9 groups, each containing 8 mice, based on their body weight on the day before the start of treatment. […] The NASH model mice were stratified by the body weight, and the standard deviation (SD) was calculated to minimize the difference in mean body weight between the groups. […]
# as §2, with “mouse.” for “mouse. The GF423-administered group was administered once a day at a dose of 1×10^7 CFU per mouse. GF103 was administered once a day at a dose of 10 U per mouse. Telmisartan was administered once a day at a dose of 10 mg/kg.”
# [4] = system: nonalcoholic steatohepatitis (NASH) STAM™ animal model; assay type: in vivo
# Protocol: as §1
# The GF427-administered groups were administered once a day at five dose levels: 0.05×10^7 (lowest dose), 0.1×10^7 (low dose), 0.5×10^7 (middle dose), 1×10^7 (high dose), and 5×10^7 CFU (highest dose) per mouse. The GF423-administered group was administered once a day at a dose of 1×10^7 CFU per mouse. GF103 was administered once a day at a dose of 10 U per mouse. Telmisartan was administered once a day at a dose of 10 mg/kg. GF427, GF423, and GF103 were administered orally in the form of a vehicle at a dose of 100 μL, and telmisartan was administered orally in the form of being supplemented with reverse osmosis water (RO water) at a dose of 10 mL/kg. The normal and disease control groups were not subjected to any treatment before sacrifice, and were sacrificed at 13 weeks of age by exsanguination via direct cardiac puncture under isoflurane (purchased from Pfizer Inc.) anesthesia. The animals were monitored daily for viability, clinical signs (lethargy, convulsion, respiratory distress), and behavior to observe whether there are any significant clinical signs of toxicity, coma, and death before and after administration of the test substance. […] All animal care and experiments were conducted in accordance with laws and regulations related to animal welfare and management.
# At sacrifice of the mice, the whole liver was collected and washed with cold saline. Photographs of the individual whole liver (parietal side and visceral side) were taken. Then, the liver weight was measured and the liver-to-body weight ratio was calculated. […]
# [5] = system: nonalcoholic steatohepatitis (NASH) STAM™ animal model; assay: Sirius red staining of liver (fibrosis area) in NASH STAM model; assay type: in vivo, C57BL/6J mice; details: PO, QD; GF423 1×10^7 CFU, GF103 10 U, telmisartan 10 mg/kg; vs disease control group
# Protocol: as §1
# as §2, with “mouse.” for “mouse. GF103 was administered once a day at a dose of 10 U per mouse. Telmisartan was administered once a day at a dose of 10 mg/kg.”
# For quantitative analysis of fibrosis area, bright field images of the Sirius red-stained section were captured around the central vein using a digital camera (DFC295, purchased from Leica) at 200-fold magnification, and the positive areas in 5 fields/section were measured using ImageJ software (National Institute of Health, USA). […]
# [6] = PO, QD, weeks 10 to 13, GF423 1×10^7 CFU, GF103 10 U, telmisartan 10 mg/kg, vs disease control group
compound,measurement,setting,value
"CCCc1nc2c(C)cc(-c3nc4ccccc4n3C)cc2n1Cc1ccc(-c2ccccc2C(=O)O)cc1 [telmisartan, Telmisartan]",plasma ALT level,[1],tended to show a decrease in plasma ALT level
same,NAFLD activity score (NAS),[2],significant decrease in NAS
same,mean body weight during the treatment period,"[3]; weeks 10 to 13, GF427 0.05-5×10^7 CFU, GF103 10 U, vs disease control group",significantly lower than that of the disease control group from day 17 to day 21
same,mice found dead or euthanized before day 21,[3]; 8 mice per group,two of the eight mice were euthanized
same,mean liver weight,[4]; [6],significant decrease in mean liver weight
same,mean liver-to-body weight ratio,[4]; [6],tended to show a decrease in mean liver-to-body weight ratio
same,daily mean body weight on the day of sacrifice,"[4]; mouse, in vivo, po",significant decrease in daily mean body weight on the day of sacrifice
same,fibrosis area (Sirius red-positive area),[5],tended to decrease
